Experimental data from PMC4703859, “Efficient backbone cyclization of linear peptides by a recombinant asparaginyl endopeptidase” (Nature Communications, 2015).
Where a SMILES comes first, the peptide text is derived from it. [ ]: non-standard residue; d: D form. The star is where a group is joined. Sta = CC(C)C[C@H](N)[C@@H](O)CC(=O)O; Isovaleryl = CC(C)CC(=O)*

How the values were obtained:
[1] = tested on: rOaAEP1b; experiment: Cyclization assay of linear peptides followed by MALDI MS; format: biochemical, Oldenlandia affinis
Method: Linear target peptides (280 μM) were incubated with rOaAEP1b (12 μg ml^−1 total protein unless otherwise indicated) in activity buffer. The reaction was allowed to proceed for up to 22 h at room temperature and was analysed by matrix-assisted laser desorption/ionization MS (MALDI MS), RP-HPLC or NMR as appropriate.
To confirm the presence of cyclic product, R1 derivatives processed by rOaAEP1b were subsequently digested with endoGlu-C (25 μg ml^−1) in reaction buffer (50 mM Tris-HCl, 0.5 mM Glu–Glu, pH 8) such that the final dilution of the cyclization mix was 1:4. The reaction was allowed to proceed for 18 h at 37 °C before analysis by MALDI MS.
Cyclization of linear target peptides was monitored by MALDI MS. The reaction mixture (10–20 μl) was desalted using C18 zip tips and eluted in 4 μl 50% acetonitrile, 0.1% trifluoroacetic acid (TFA). A saturated MALDI matrix solution (α–cyano-4-hyroxycinnamic acid) prepared in 95% acetonitrile, 0.1% TFA was diluted 1:22 such that the final matrix solution comprised 90% acetonitrile, 0.1% TFA and 1 mM NH4H2PO4. Eluted samples were mixed 1:4 with the MALDI matrix, spotted onto a MALDI plate and analysed by an Ultraflex III TOF/TOF (Bruker) in positive reflector mode.

[2] = tested on: rOaAEP1b; experiment: Inhibition assay, enzyme activity against wt IQF peptide; format: biochemical, Oldenlandia affinis; settings: 40 min pre-incubation, wt IQF peptide 11 μM, 90 min
Method: To investigate the impact of inhibitors on enzyme activity against the wt IQF peptide, rOaAEP1b (4.4 μg ml^–1 total protein) was incubated with the indicated concentration of E64, Ac-YVAD-CHO, pepstatin A and iodoacetamide for 40 min before addition to the substrate (11 μM). Enzyme activity against the wt IQF peptide was then assessed as described above.
Supplementary Figure 3: rOaAEP1b activity against the wt IQF peptide in the presence of protease inhibitors. rOaAEP1b (~4.4 µg ml-1 total protein) was allowed to cleave the wt IQF peptide (11 µM) and fluorescence intensity was recorded every minute for 90 min. The enzyme activity in the presence of inhibitors is reported relative to a no inhibitor control at the 90 min time point. Each data point represents the average of two technical replicates and error bars report the range.
(1 picture or pasted object on this page, not shown here)

[3] = assayed against a small substrate; cited from earlier work
Method: The activity of rOaAEP1b against IQF peptides representing wt and mutant versions of the native kB1 C-terminal cleavage site was determined (Table 1; Supplementary Fig. 4a). […] This observation is consistent with the lack of cyclic product generated when the corresponding mutation was introduced in planta. Kinetic parameters (Vmax, Km and kcat) are reported where applicable (Table 1). The tur ...

VFAEFLPLFSKFGSRMHILK [R1, anti-malarial peptide structurally unrelated to cyclotides]
processing by rOaAEP1b of R1 peptides lacking a full recognition sequence ([1]; 22 h, MALDI MS): No processing | cyclization by rOaAEP1b following the addition of N- and C-terminal AEP recognition sequences ([1]; 22 h post addition of rOaAEP1b, MALDI MS, cyclic product confirmed by endoGlu-C digestion): efficiently cyclized | cyclization efficiency ([1]; rOaAEP1b): ~100%

CC(C)CC(=O)N[C@H](C(=O)N[C@H](C(=O)N[C@@H](CC(C)C)[C@@H](O)CC(=O)N[C@@H](C)C(=O)N[C@@H](CC(C)C)[C@@H](O)CC(=O)O)C(C)C)C(C)C [pepstatin A] (Isovaleryl-VV[Sta]A[Sta]-OH)
effect of inhibitor on rOaAEP1b activity ([2]; pepstatin A 10 μM): not affected

NC(=O)CI [iodoacetamide]
effect of inhibitor on rOaAEP1b activity ([2]; iodoacetamide 1 mM, 4.4 μg ml^-1 total protein): inhibited

CC(C)C[C@H](NC(=O)[C@H]1O[C@@H]1C(=O)O)C(=O)NCCCCN=C(N)N [E64]
effect of inhibitor on rOaAEP1b activity ([2]; E64 250 μM): not affected

Ac-YVAD-CHO
effect of inhibitor on rOaAEP1b activity ([2]; Ac-YVAD-CHO 500 μM): poor inhibitor

B1: recombinant human legumain: recombinant human AEP (protein, UniProt Q99538 18-323, looked up)
Legumain: VPIDDPEDGGKHWVVIVAGSNGWYNYRHQADACHAYQIIHRNGIPDEQIVVMMYDDIAYSEDNPTPGIVINRPNGTDVYQGVPKDYTGEDVTPQNFLAVLRGDAEAVKGIGSGKVLKSGPQDHVFIYFTDHGSTGILVFPNEDLHVKDLNETIHYMYKHKMYRKMVFYIEACESGSMMNHLPDNINVYATTAANPRESSYACYYDEKRSTYLGDWYSVNWMEDSDVEDLTKETLHKQYHLVKSHTNTSHVMQYGNKTISTMKVMQFQGMKRKASSPVPLPPVTHLDLTPSPDVPLTIMKRKLMNTN
turnover rate (kcat) [3]: ~8 s⁻¹

B2: kB1L31A: kB1 precursor with a Leu31Ala mutation (peptide, UniProt P56254 23-124, looked up, variant L31A)
pro-form: SELSDSHKTTLVNEIAEKMLQRKILDGVEATLVTDVAEKMFLRKMKAEAKTSETADQVFLKQLQLKGLPVCGETCVGGTCNTPGCTCSWPVCTRNGAPSLAA
modifications: pro-form
notes: kB1 precursor with a Leu31Ala mutation
rOaAEP1b-mediated processing of modified kB1 and kB2 precursors over time ([1]; 280 μM peptide, pH 5, room temperature, 1, 5 and 22 h, MALDI MS, three technical replicates): cyclized far more slowly than the wt precursor
